Source: ChEMBL document CHEMBL1127614, “2,6-Disubstituted aryl carboxylic acids, leaving groups "par excellence" for benzisothiazolone inhibitors of human leukocyte elastase” (J Med Chem, 1994)

The compounds below were run on Cricetinae gen. sp. (assay: In Vivo evaluation of the Compound for the percentage inhibition of HLE at 60 mg/kg dose by intravenous administration).
Format: functional, Cricetulus griseus

SMILES | inhibition in vivo at 60 mg/kg [%]
CC(C)c1cccc2c1C(=O)N(COC(=O)c1c(Cl)cccc1Cl)S2(=O)=O | 47

Each compound was assayed against T1, Neutrophil elastase (Homo sapiens, UniProt P08246) (assay: In vitro inhibition constant of human leukocyte elastase.).
T1 sequence (P08246 whole entry): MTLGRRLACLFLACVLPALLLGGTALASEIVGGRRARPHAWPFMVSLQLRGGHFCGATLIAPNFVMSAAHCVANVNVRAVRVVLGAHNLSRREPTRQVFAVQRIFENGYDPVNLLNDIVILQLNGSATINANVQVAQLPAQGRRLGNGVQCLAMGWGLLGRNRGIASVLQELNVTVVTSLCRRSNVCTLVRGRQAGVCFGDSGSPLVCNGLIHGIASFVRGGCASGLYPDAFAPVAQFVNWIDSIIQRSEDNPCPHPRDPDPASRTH

Ki [nM] | SMILES
31 | O=C(OCN1C(=O)c2ccccc2S1(=O)=O)c1ccccc1
102 | CC(=O)OCN1C(=O)c2ccccc2S1(=O)=O
18 | CC(=O)Nc1cccc(Cl)c1C(=O)OCN1C(=O)c2ccccc2S1(=O)=O
8.5 | O=C(OCN1C(=O)c2ccccc2S1(=O)=O)c1c(Br)cccc1Br
8 | O=C(OCN1C(=O)c2ccccc2S1(=O)=O)c1c(F)cccc1F
4 | Cc1cccc(C)c1C(=O)OCN1C(=O)c2ccccc2S1(=O)=O

Continued, compound first:

SMILES | Ki [nM]
CC(C)c1cccc2c1C(=O)N(COC(=O)c1c(Cl)cccc1Cl)S2(=O)=O | 0.03
O=C(OCN1C(=O)c2c(-c3ccccc3)cccc2S1(=O)=O)c1c(Cl)cccc1Cl | 1
CCc1cccc2c1C(=O)N(COC(=O)c1c(Cl)cccc1Cl)S2(=O)=O | 0.17
O=C(OCN1C(=O)c2ccccc2S1(=O)=O)c1c(C(F)(F)F)cccc1C(F)(F)F | 37
COc1cccc(OC)c1C(=O)OCN1C(=O)c2ccccc2S1(=O)=O | 8
Cc1cccc2c1C(=O)N(COC(=O)c1c(Cl)cccc1Cl)S2(=O)=O | 2
CC(C)(C)c1cccc2c1C(=O)N(COC(=O)c1c(Cl)cccc1Cl)S2(=O)=O | 26
CCC(C)c1cccc2c1C(=O)N(COC(=O)c1c(Cl)cccc1Cl)S2(=O)=O (stereo not given) | 0.06
